{"source": "PubChem BioAssay AID1224900", "tested_on": "MDA-MB-231 viability, PrestoBlue fluorescence", "assay": "antiproliferative effect, triple-negative breast cancer line – cell-based, MDA-MB-231, mTOR inhibitor project, dose response (AID 1224900)"}
{"molecule": "CCOC(Cn1nc(-c2ccc3oc(N)nc3c2)c2c(N)ncnc21)OCC", "values": [{"measurement": "EC50", "result": 72, "unit": "nM"}]}
